Among the data in patent US20120165304A1, “6,7,8,9-Tetrahydro-5H-1,4,7,10a-tetraaza-cyclohept[f]indene derivatives, pharmaceutical compositions containing these compounds, their use and processes for preparing them” (BOEHRINGER INGELHEIM INTERNATIONAL GMBH, priority 2008, published 2012) are EC50 values, retold here.

In this assay the target is human 5-HT2C receptor (Homo sapiens, UniProt P28335, I156V/I160V/N158S). As to the kind of experiment: cell-based.
Chain of human 5-HT2C receptor (P28335 33-458 I156V/N158S/I160V limits assumed): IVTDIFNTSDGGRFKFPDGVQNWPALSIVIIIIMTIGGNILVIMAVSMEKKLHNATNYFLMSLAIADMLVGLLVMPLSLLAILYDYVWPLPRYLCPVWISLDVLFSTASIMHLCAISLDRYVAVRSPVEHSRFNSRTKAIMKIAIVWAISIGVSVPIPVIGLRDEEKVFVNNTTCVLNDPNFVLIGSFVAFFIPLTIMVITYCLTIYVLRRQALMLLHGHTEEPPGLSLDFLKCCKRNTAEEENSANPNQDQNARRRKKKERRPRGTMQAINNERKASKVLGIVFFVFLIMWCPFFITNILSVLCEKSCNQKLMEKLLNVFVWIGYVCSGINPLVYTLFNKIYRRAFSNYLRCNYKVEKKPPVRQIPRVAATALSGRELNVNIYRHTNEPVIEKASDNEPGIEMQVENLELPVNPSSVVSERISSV
The EC50 is the concentration needed to bring the measured effect to its halfway point. The low end stands for a more potent agent, the high end for a less potent agent. Molecule `O=C(NC1CC2CCC1C2)C1CN(c2c3c(nc4ccnn24)CCNCC3)C1` (stereo not drawn) [Example 37.84] showed an EC50 of 62 nM.

As to `COc1ccc2c(c1)CCN2C(=O)C1CN(c2c3c(nc4ccnn24)CCNCC3)C1` [Example 31.218], the EC50 amounted to 40 nM.

`CN1CCc2nc3ccnn3c(N3CC(C(=O)N4CCN(C)C(=O)C4)C3)c2CC1` [Example 36.19] registered an EC50 of 257 nM.

In turn, `Cc1ccc(OCC2CN(c3c4c(nc5ccnn35)CCNCC4)C2)cc1` [Example 15.18] returned an EC50 of 140 nM. In the case of `CN1CCc2nc3ccnn3c(N3CC(C(=O)NCCC4CCCC4)C3)c2CC1` [Example 36.46] it was 143 nM; in that of `CN(C(=O)C1CN(c2c3c(nc4ccnn24)CCNCC3)C1)C1CCCCC1` [Example 31.179], 1690 nM. The result for `CN(Cc1ccc(C#N)cc1)C(=O)C1CN(c2c3c(nc4ccnn24)CCNCC3)C1` [Example 31.2] reads 14 nM; that for `Cc1coc(C2CN(c3c4c(nc5ccnn35)CCNCC4)C2)n1` [Example 13, 10-[3-(4-Methyl-oxazol-2-yl)-azetidin-1-yl]-6,7,8,9-tetrahydro-5H-1,4,7,10a-tetraaza-cyclohepta[f]indene], 628 nM. The molecule `O=C(C1CN(c2c3c(nc4ccnn24)CCNCC3)C1)N1CCC(CCc2ccccc2)C1` (stereo not drawn) [Example 31.99] had an EC50 of 64 nM. The result for `O=C(C1CN(c2c3c(nc4ccnn24)CCNCC3)C1)N1CCC2CC2(c2ccccc2)C1` (stereo not drawn) [Example 31.233] reads 106 nM. Molecule `CCC(C)(C)NC(=O)C1CN(c2c3c(nc4ccnn24)CCNCC3)C1` [Example 37.54] showed an EC50 of 118 nM.

`CC(C)CCN(C)C(=O)C1CN(c2c3c(nc4ccnn24)CCNCC3)C1` [Example 31.74] had an EC50 of 175 nM. Turning to `COc1ccc(Cl)c(OCC2CN(c3c4c(nc5ccnn35)CCNCC4)C2)c1` [Example 15.27], the EC50 was 7 nM. Consider `CCN(C)C(=O)C1CN(c2c3c(nc4ccnn24)CCNCC3)C1` [Example 31.4], for which a half-maximal effect (EC50) was put at 685 nM. The molecule `CC(C)c1ccccc1OC1CCN(C(=O)C2CN(c3c4c(nc5ccnn35)CCNCC4)C2)CC1` [Example 31.219] displayed an EC50 of 124 nM. In the case of `CC#CCNC(=O)C1CN(c2c3c(nc4ccnn24)CCNCC3)C1` [Example 37.105] it was 139 nM; in that of `Cc1cc(OCC2CN(c3c4c(nc5ccnn35)CCNCC4)C2)ccc1F` [Example 15.4], 25 nM; in that of `c1ccc(COC2CN(c3c4c(nc5ccnn35)CCNCC4)C2)nc1` [Example 20.15], 180 nM. The result for `CCc1cnn2c(N3CC(Oc4ccc(OC)cc4)C3)c3c(nc12)CCNCC3` [Example 25.1] reads 77 nM; that for `CC1CCN(C(=O)C2CN(c3c4c(nc5ccnn35)CCNCC4)C2)C1` (stereo not drawn) [Example 31.124], 94 nM; that for `CN1CCc2nc3ccnn3c(N3CC(C(=O)N4CCC(C#N)C4)C3)c2CC1` (stereo not drawn) [Example 36.44], 214 nM.

Take `CC1(C)CN(C(=O)C2CN(c3c4c(nc5ccnn35)CCNCC4)C2)Cc2ccccc21` [Example 31.177]: it took 623 nM to reach a half-maximal effect (EC50). The molecule `CN(C)C1CN(C(=O)C2CN(c3c4c(nc5ccnn35)CCNCC4)C2)C1` [Example 37.33] yielded an EC50 of 7 nM. The molecule `CN(Cc1ccc2ccccc2c1)C(=O)C1CN(c2c3c(nc4ccnn24)CCNCC3)C1` [Example 31.169] gave an EC50 of 33 nM. On to `CN(Cc1ccc(Cl)cc1Cl)C(=O)C1CN(c2c3c(nc4ccnn24)CCNCC3)C1` [Example 31.164], for which the EC50 is 111 nM.

`Cc1ccc(OC2CN(c3c4c(nc5ccnn35)CCNCC4)C2)c(C)c1` [Example 35.6] showed a 50% effective concentration (EC50) of 266 nM. In turn, `CCC(C)CNC(=O)C1CN(c2c3c(nc4ccnn24)CCNCC3)C1` (stereo not drawn) [Example 37.86] had an EC50 of 41 nM. For the molecule `CN(C)CCN(C)C(=O)C1CN(c2c3c(nc4ccnn24)CCN(C)CC3)C1` [Example 36.2], the midpoint of the response, the EC50, lay at 563 nM. For `Cc1cccc(OC2CN(c3c4c(nc5ccnn35)CCNCC4)C2)c1` [Example 35.51], the concentration for a half-maximal effect (EC50) stood at 126 nM.

`O=C(C1CN(c2c3c(nc4ccnn24)CCNCC3)C1)N1CCCC(c2ccccc2)C1` (stereo not drawn) [Example 31.108] came in with a half-maximal effective concentration (EC50) of 113 nM. Regarding `Cc1ccc2c(c1)CCN2C(=O)C1CN(c2c3c(nc4ccnn24)CCNCC3)C1` [Example 31.156], the EC50 turned out to be 135 nM. The result for `COC1(C)CCN(C(=O)C2CN(c3c4c(nc5ccnn35)CCNCC4)C2)CC1` [Example 31.220] reads 55 nM.

With `c1cc(OC2CN(c3c4c(nc5ccnn35)CCNCC4)C2)c2ccncc2c1` [Example 35.16], the EC50 was found to be 92 nM.

Take `Cc1nc(CN(C)C(=O)C2CN(c3c4c(nc5ccnn35)CCNCC4)C2)c(C)o1` [Example 31.58]: the EC50 was determined as 53 nM. `CN(C)CCNC(=O)C1CN(c2c3c(nc4ccnn24)CCNCC3)C1` [Example 37.74]: the EC50 came to 29 nM. The result for `O=C(NC1(c2ccc(F)cc2)CC1)C1CN(c2c3c(nc4ccnn24)CCNCC3)C1` [Example 31.93] reads 786 nM.

In the case of `O=C(C1CN(c2c3c(nc4ccnn24)CCNCC3)C1)N1CC(F)(F)C(F)(F)C1` [Example 31.200], a half-maximal effect (EC50) was put at 28 nM.

As to `Cc1ccc2c(c1)N(C(=O)C1CN(c3c4c(nc5ccnn35)CCNCC4)C1)CC2` [Example 31.176], the EC50 amounted to 95 nM. `O=C(C1CN(c2c3c(nc4ccnn24)CCNCC3)C1)N1CCC2(CCC2)C1` [Example 31.56] showed an EC50 of 43 nM. In the case of `c1ccc(CN2CCN(c3c4c(nc5ccnn35)CCNCC4)CC2)cc1` [Example 1.1] it was 108 nM; in that of `CN1CCc2nc3ccnn3c(N3CC(C(=O)N4CCC(N(C)C)CC4)C3)c2CC1` [Example 36.5], 51 nM; in that of `Brc1cnn2c(N3CCC3)c3c(nc12)CCNCC3` [Example 2, 10-Azetidin-1-yl-3-bromo-6,7,8,9-tetrahydro-5H-1,4,7,10a-tetraaza-cyclohepta[f]indene], 4 nM.

Turning to `O=C(C1CN(c2c3c(nc4ccnn24)CCNCC3)C1)N1CCC(Oc2ccccn2)CC1` [Example 31.230], the midpoint of the response, the EC50, lay at 54 nM. In the case of `CCCCN1CCCN(C(=O)C2CN(c3c4c(nc5ccnn35)CCN(C)CC4)C2)CC1` [Example 36.36] it was 256 nM; in that of `c1ccc2[nH]c(C3CN(c4c5c(nc6ccnn46)CCNCC5)C3)nc2c1` [Example 34], 611 nM; in that of `COCC1CN(c2c3c(nc4ccnn24)CCNCC3)C1` [Example 16, 10-(3-Methoxymethyl-azetidin-1-yl)-6,7,8,9-tetrahydro-5H-1,4,7,10a-tetraaza-cyclohepta[f]indene], 211 nM. In the case of `COC1CN(c2c3c(nc4ccnn24)CCNCC3)C1` [Example 16.1] it was 82 nM; in that of `CC1(C)CCN(C(=O)C2CN(c3c4c(nc5c(Br)cnn35)CCNCC4)C2)CC1` [Example 31.138], 71 nM. In the case of `O=C(C1CN(c2c3c(nc4ccnn24)CCNCC3)C1)N1CCc2cccc(Br)c2C1` [Example 31.207] it was 43 nM; in that of `CN1CCc2nc3ccnn3c(N3CC(C(=O)N[C@H]4CC[C@H](N(C)C)CC4)C3)c2CC1` [Example 36.16], 282 nM.

`Cc1ccc(CN(C)C(=O)C2CN(c3c4c(nc5ccnn35)CCNCC4)C2)s1` [Example 31.24] came in with a 50% effective concentration (EC50) of 53 nM. On to `Cc1cccc(C2CCN(C(=O)C3CN(c4c5c(nc6ccnn46)CCNCC5)C3)CC2)c1` [Example 31.167], for which the response was half-maximal at 101 nM (EC50). `O=C(C1CN(c2c3c(nc4ccnn24)CCNCC3)C1)N1CCN2CCCC2C1` (stereo not drawn) [Example 37.9] yielded a concentration for a half-maximal effect (EC50) of 3 nM. `CC1CC(C)CC(N(C)C(=O)C2CN(c3c4c(nc5ccnn35)CCNCC4)C2)C1` (stereo not drawn) [Example 31.216]: the response was half-maximal at 847 nM (EC50).

`CN(C)C(=O)[C@@H]1CCN(c2c3c(nc4ccnn24)CCNCC3)C1` [Example 1.62] registered an EC50 of 2070 nM. Consider `O=C(C1CN(c2c3c(nc4ccnn24)CCNCC3)C1)N1CCCCC1` [Example 31.15], for which the EC50 was 342 nM. The result for `O=C(C1CN(c2c3c(nc4ccnn24)CCNCC3)C1)N1CCc2ccccc21` [Example 31.143] reads 49 nM.

As to `CCN1CCN(C(=O)C2CN(c3c4c(nc5ccnn35)CCN(C)CC4)C2)CC1` [Example 36.1, (4-Ethyl-piperazin-1-yl)-[1-(7-methyl-6,7,8,9-tetrahydro-5H-1,4,7,10a-tetraaza-cyclohepta[f]inden-10-yl)-azetidin-3-yl]-methanone], the EC50 came out at 69 nM. `c1cc2nc3c(c(C4CCC4)n2n1)CCNCC3` [Example 23, 10-Cyclobutyl-6,7,8,9-tetrahydro-5H-1,4,7,10a-tetraaza-cyclohepta[f]indene]: the concentration giving a half-maximal response (EC50) worked out at 114 nM.

Molecule `Cc1ccc(F)c(OCC2CN(c3c4c(nc5ccnn35)CCNCC4)C2)c1` [Example 15.5] yielded an EC50 of 7 nM.

Take `CN(Cc1ccc(OC(F)F)cc1)C(=O)C1CN(c2c3c(nc4ccnn24)CCNCC3)C1` [Example 31.161]: the EC50 was 15 nM. The result for `CNC(=O)C1CN(c2c3c(nc4ccnn24)CCNCC3)C1` [Example 9.1] reads 818 nM; that for `O=C(C1CN(c2c3c(nc4ccnn24)CCNCC3)C1)N1CCC(C(F)(F)F)C1` (stereo not drawn) [Example 31.95], 41 nM; that for `Clc1ccc(OC2CN(c3c4c(nc5ccnn35)CCNCC4)C2)cc1` [Example 35, 10-[3-(4-Chloro-phenoxy)-azetidin-1-yl]-6,7,8,9-tetrahydro-5H-1,4,7,10a-tetraaza-cyclohepta[f]indene], 141 nM. `CCOc1ccccc1OC1CN(c2c3c(nc4ccnn24)CCNCC3)C1` [Example 35.37] returned an EC50 of 47 nM. Turning to `CC1CCN(C(=O)C2CN(c3c4c(nc5ccnn35)CCNCC4)C2)CC1` [Example 31.228], the midpoint of the response, the EC50, lay at 42 nM. In the case of `CN1CCc2nc3ccnn3c(N3CC(C(=O)NC4CCOCC4)C3)c2CC1` [Example 36.35] it was 114 nM; in that of `CN1C(C)(C)CC(NC(=O)C2CN(c3c4c(nc5ccnn35)CCNCC4)C2)CC1(C)C` [Example 37.106], 9 nM; in that of `Fc1cccc(F)c1OC1CN(c2c3c(nc4ccnn24)CCNCC3)C1` [Example 35.41], 9 nM.
